# According to US20240217936A1, “5-BENZY[…] AND PREPARATION METHOD THEREFOR AND USE THEREOF” (WEST CHINA HOSPITAL, SICHUAN UNIVERSITY, priority 2021, published 2024):
# Structures can show the parent of a compound that is named as a salt.
# Assays:
# [1] = system: Male SD rats; experiment: Sedative and hypnotic effects after oral administration (gavage, righting reflex); type: in vivo, rat; parameters: key to Onset time / Duration: —: Disappearance of righting reflex was not observed; settings: for Onset time / Duration: gavage, 0.16 μmoL/kg; for Onset time: disappearance of righting reflex; for Duration: until recovery of righting reflex
# Protocol: Each test drug was administered by gavage, at a dosage of 0.16 μmoL/kg for each drug. After gavage, the disappearance of the righting reflex was used as a sign of the hypnotic effect induced by the drug, and the recovery of the righting reflex was used as a sign of drug failure. The onset time and duration of the drug were observed.
# [2] = system: Male SD rats; experiment: Hypnotic effect after tail vein injection (loss of righting reflex); type: in vivo, rat; settings: for ED50: Rattus norvegicus, 50% of the dose for the disappearance of righting reflex in rats, tail vein injection; for Onset time: tail vein injection of 2× ED50, loss of righting reflex; for Onset time / Duration: rats; for Duration: tail vein injection of 2× ED50, until recovery of righting reflex
# Protocol: Male SD rats, weighing 250-300 g, were randomly divided into groups, with 10 rats in each group. […] The onset times and the duration of hypnosis were recorded.
# [3] = Degradation of prodrug in rat plasma (release of dexmedetomidine, HPLC); type: in vitro ADME; settings: 37° C.
# Protocol: The test prodrug was formulated as a 1 mg/mL of physiological saline solution, and then 100 μL of the prodrug solution was added to 900 μL of rat plasma. The test solution was vortexed for 30 s before incubation at 37° C. 50 μL of drug-containing plasma was collected at 0.5 min, 1 min, 2 min, 3 min, 5 min, 10 min, 15 min, 20 min, 30 min, and 60 min, respectively, to which was immediately added 150 μL of acetonitrile to terminate the enzymatic reaction, followed by adding the solution of internal standard telmisartan in methanol (30 μL, 20 μg/mL). Then, the resultant solution was centrifuged at 20000 rpm and 4° C. for 10 min. 100 μL of the supernatant was injected for detection by HPLC, and the concentration of dexmedetomidine was determined by an internal standard method. The degradation rate of the prodrug was calculated based on the concentration of dexmedetomidine. The chromatographic conditions are: Swell XDB C18 column (150 mm×4.6 mm, 5 μm); column temperature 30° C.; using gradient elution (see Table 1), mobile phase A: methanol, mobile phase B: 0.1% trifluoroacetic acid in water, and mobile phase C: acetonitrile; detection wavelength: 220 nm; flow rate: 1.0 mL/min; injection volume: 30 μL; retention time: 4.7 minutes for dexmedetomidine and 6.7 minutes for internal standard telmisartan. The linear range of dexmedetomidine: 2.5-100 μg/mL. Instruments: Waters 2695 high-performance liquid chromatograph, Waters 2996 photodiode array detector.
# [4] = system: Male SD rats; experiment: Blood pressure change after tail vein injection (mean arterial pressure); settings: dosage 2× ED50, injection within 15 seconds, 60 min recording, rats under isoflurane
# Protocol: Male SD rats weighing 250-300 g were randomly divided into groups, with 10 rats in each group. General anesthesia was maintained by inhaling isoflurane. By intubating via femoral artery, blood pressure was monitored using the BL-420N biological signal collection and analysis system. minutes after blood pressure stabilization, the baseline mean arterial pressure (MAP0) was measured. Subsequently, the physiological saline solution of each test drug was injected via the tail vein (the dosage of each drug was the same as that in Experiment example 2, with a unified injection […] volume of 1 mL). […] All prodrug molecules were injected within 15 seconds. After injection of each drug, the change in blood pressure was continuously recorded for 60 min. […] The difference MAPΔ+ between the baseline mean arterial pressure (MAP0) and the highest mean arterial pressure (MAPmax) during the 60 min measurement time was calculated; the difference MAPΔ− between the baseline mean arterial pressure (MAP0) and the lowest mean arterial pressure (MAPmin) during the 60 min measurement time was also obtained; both of the difference values were used to calculate the maximum increase rate of mean arterial pressure +Δ%=MAPΔ+/MAP0*100% and the maximum decrease rate of mean arterial pressure −Δ%=MAPΔ−/MAP0*100%, respectively. The maximum increase rate of mean arterial pressure +Δ% and the maximum decrease rate −Δ% reflect the degree of blood pressure change that the body experienced after administration. The larger the value, the greater the blood pressure change that the body experienced.
SMILES,Onset time [1],Duration [1],ED50 [2],Onset time [2],Duration [2],Degradation rate of prodrug % ([3]; 0.5 min),Degradation rate of prodrug % ([3]; 1 min),Degradation rate of prodrug % ([3]; 2 min),Degradation rate of prodrug % ([3]; 3 min),+Δ % (The maximum increase rate of blood pressure) [4],−Δ % (The maximum decrease rate of blood pressure) [4],"hypnotic effect by oral administration ([1]; equimolar doses, oral)",Degradation rate of prodrug % ([3]; 5 min),Degradation rate of prodrug % ([3]; 10 min),Degradation rate of prodrug % ([3]; 15 min),Degradation rate of prodrug % ([3]; 20 min),Degradation rate of prodrug % ([3]; 30 min),Degradation rate of prodrug % ([3]; 60 min)
Cc1cccc([C@H](C)c2cn(COC(=O)OC(C)C)cn2)c1C [Compound 7],9 ± 4 min,22 ± 8 min,,,,,,,,,,,,,,,,
COC(=O)OCn1cnc([C@@H](C)c2cccc(C)c2C)c1 [Compound 13],11 ± 5 min,21 ± 9 min,,,,,,,,,,,,,,,,
CC(=O)OCn1cnc([C@@H](C)c2cccc(C)c2C)c1 [Compound 1-HCl],15 ± 6 min,17 ± 8 min,0.035 mg/kg,3.9 ± 1.5 min,42 ± 9 min,33%,68%,95%,100%,*25 ± 12%,43 ± 10%,,,,,,,
CC(=O)OC(C)n1cnc([C@@H](C)c2cccc(C)c2C)c1 (stereo partly drawn) [Compound 17],23 ± 5 min,9 ± 4 min,,,,,,,,,,,,,,,,
CCC(=O)OCn1cnc([C@@H](C)c2cccc(C)c2C)c1 [Compound 10],13 ± 6 min,15 ± 7 min,,,,,,,,,,,,,,,,
"Cc1cccc([C@H](C)c2c[nH]cn2)c1C.Cl [Dexmedetomidine hydrochloride, reference compound]",—,—,0.018 mg/kg,1.5 ± 0.5 min,53 ± 11 min,,,,,,,could not produce a hypnotic effect,,,,,,
CCOC(=O)CCC(=O)OCn1cnc([C@@H](C)c2cccc(C)c2C)c1 [Compound 27-HCl],,,0.019 mg/kg,1.4 ± 0.5 min,52 ± 9 min,52%,58%,66%,,*25 ± 13%,41 ± 9%,,78%,86%,97%,100%,,
CCOC(=O)COC(=O)OCn1cnc([C@@H](C)c2cccc(C)c2C)c1 [Compound 24-HCl],,,0.03 mg/kg,1.3 ± 0.4 min,47 ± 7 min,18%,21%,24%,27%,*27 ± 12%,,,31%,33%,36%,37%,38%,41%
CCC(=O)OC(C)n1cnc([C@@H](C)c2cccc(C)c2C)c1 (stereo partly drawn) [Compound 18-HCl],,,0.036 mg/kg,2.4 ± 0.9 min,41 ± 10 min,17%,33%,42%,48%,29 ± 12%,34 ± 8%,,54%,59%,64%,69%,72%,75%
Cc1cccc([C@H](C)c2cn(C(=O)OCC(C)C)cn2)c1C [Compound 4-HCl],14 ± 8 min,20 ± 13 min,0.038 mg/kg,2.3 ± 0.9 min,44 ± 8 min,31%,86%,97%,100%,34 ± 14%,38 ± 9%,,100%,,,,,
COC(=O)COC(=O)OCn1cnc([C@@H](C)c2cccc(C)c2C)c1 [Compound 23],28 ± 5 min,8 ± 2 min,,,,,,,,,,,,,,,,
"Cc1cccc([C@H](C)c2cn(COP(=O)(OC(C)(C)C)OC(C)(C)C)cn2)c1C [Compound 12, (S)-(4-(1-(2,3-dimethylphenyl)ethyl)-1H-imidazo-1-yl)methyl di-tert-butyl phosphate]",16 ± 7 min,11 ± 4 min,,,,,,,,,,,,,,,,
Cc1cccc([C@H](C)c2cn(C(=O)OC(C)C)cn2)c1C [Compound 5-HCl],,,0.037 mg/kg,3.7 ± 1.3 min,61 ± 15 min,36%,47%,52%,67%,*18 ± 6%,35 ± 5%,,89%,98%,100%,,,
Cc1cccc([C@H](C)c2cn(COC(=O)OC3CC3)cn2)c1C [Compound 22-HCl],,,0.024 mg/kg,1.5 ± 0.2 min,48 ± 9 min,91%,97%,100%,,34 ± 7%,39 ± 6%,,,,,,,
